Assay results taken from patent EP0033042A1, “Ophthalmic inserts for lowering intraocular pressure comprising carbonic anhydrase inhibitors” (Merck & Co., Inc., priority 1980, dated 1981).
Structures can show the parent of a compound that is named as a salt.

Legend:
[1] = test system: INTRAOCULAR PRESSURE (IOP) IN RABBITS WITH ALPHA CHYMOTRYPSIN-INDUCED OCULAR HYPERTENSION; test: Topical administration, effect on IOP in rabbits with alpha chymotrypsin-induced ocular hypertension (tonometry); format: in vivo; conditions: for Change in IOP (mm Hg) After Drug Administration: 12.1 % by wt., 50µl of 0.5% hydroxyethylcellulose; for Change in IOP (mm Hg) After Drug Administration / IOP (mm Hg) t=0 min.: mean ± standard deviation, Table III; for IOP (mm Hg) t=0 min.: immediately prior the drug administration (served as control), 9 eyes; for mean ΔP (mean of ΔP versus IOP at t0): 8 animals; for mean ΔP (mean of ΔP versus IOP at t0) / Intraocular pressure, mean ± stand deviation: 50μl in 0.5% hydroxyethyl cellulose; for Intraocular pressure, mean ± stand deviation: mean of 8 animals
[2] = test system: NORMAL INTRAOCULAR PRESSURE IN UNANESTHETIZED RABBITS; test: Topical administration, effect on normal intraocular pressure in unanesthetized rabbits; format: in vivo; conditions: 12.1 % by wt., 50μl in both eyes, in 0.5% hydroxyethylcellulose
[3] = 0 min after instillation (baseline), 14 eyes

| SMILES | Change in IOP (mm Hg) After Drug Administration ([1]; 30 min) [mm Hg] | Change in IOP (mm Hg) After Drug Administration ([1]; 60 min) [mm Hg] | Change in IOP (mm Hg) After Drug Administration ([1]; 120 min) [mm Hg] | Change in IOP (mm Hg) After Drug Administration ([1]; 180 min) [mm Hg] | Change in IOP (mm Hg) After Drug Administration ([1]; 240 min) [mm Hg] | Change in IOP (mm Hg) After Drug Administration ([1]; 300 min) [mm Hg] | IOP (mm Hg) t=0 min. [1] [mm Hg] | Mean Intraocular Pressure ± SD [2, 3] [mm Hg] | Mean Intraocular Pressure ± SD ([2]; 30 min after instillation) [mm Hg] | Mean Intraocular Pressure ± SD ([2]; 60 min after instillation) [mm Hg] | Mean Intraocular Pressure ± SD ([2]; 120 min after instillation) [mm Hg] | Mean Intraocular Pressure ± SD ([2]; 180 min after instillation) [mm Hg] | Mean Intraocular Pressure ± SD ([2]; 240 min after instillation) [mm Hg] | Mean Intraocular Pressure ± SD ([2]; 300 min after instillation) [mm Hg] | further results |
| --- | --- | --- | --- | --- | --- | --- | --- | --- | --- | --- | --- | --- | --- | --- | --- |
| NS(=O)(=O)c1cc(Cl)c(Cl)c(S(N)(=O)=O)c1 [Dichlorphenamide Dipotassium salt, 4,5-Dichloro-m-benzenedisulfon-amide dipotassium salt . hemihydrate] | -1±5.3 | -4±3.8 | -7±6.2 | -6±6.8 | -4±6.2 | -3±6.7 | 38±5.9 | 20±1.8 | 18±2.4 | 18±2.4 | 17±2.1 | 15±2.4 | 17±1.8 | 20±2.6 | – |
| CC(=O)Nc1nnc(S(N)(=O)=O)s1.[K].[K] [Acetazolamide Dipotassium salt, N-[5-(aminosulfonyl)-1,3,4-thiadiazol-2-yl]acetamide dipotassium salt] | -1±3.1 | -3±4.8 | -5±4.6 | -6±5.3 | -6±5.3 | -3±6.5 | 37±6.4 | 19±1.3 | 19±1.3 | 20±1.4 | 19±1.9 | 19±1.9 | 20±1.8 | 21±1.7 | – |
| CC(=O)N=c1sc(S(N)(=O)=O)nn1C.[Na] [Methazolamide Sodium salt, N-[5-(aminosulfonyl)-3-methyl-1,3,4-thiadiazol-2(3H)-ylidene]acetamide Sodium Salt] | -3±4.6 | -5±4.7 | -6±6.0 | -7±3.7 | -5±5.4 | -7±6.3 | 39±7.7 | 20±1.9 | 20±3.0 | 20±2.7 | 19±3.3 | 18±2.7 | 20±3.4 | 20±2.8 | mean ΔP (mean of ΔP versus IOP at t0) ([1]; 30 min.): -3.1±4.58 mm Hg; mean ΔP (mean of ΔP versus IOP at t0) ([1]; 60 min.): -5.1±4.68 mm Hg; mean ΔP (mean of ΔP versus IOP at t0) ([1]; 120 min.): -5.6±6.02 mm Hg; mean ΔP (mean of ΔP versus IOP at t0) ([1]; 180 min.): -6.8±3.70 mm Hg; mean ΔP (mean of ΔP versus IOP at t0) ([1]; 240 min.): -5.4±5.42 mm Hg; mean ΔP (mean of ΔP versus IOP at t0) ([1]; 300 min.): -6.9±6.27 mm Hg; Intraocular pressure, mean ± stand deviation ([1]; 0 min. (baseline)): 39.1±7.72 mm Hg; Intraocular pressure, mean ± stand deviation ([1]; 30 min.): 36.0±8.09 mm Hg; Intraocular pressure, mean ± stand deviation ([1]; 60 min.): 34.0±7.37 mm Hg; Intraocular pressure, mean ± stand deviation ([1]; 120 min.): 33.5±8.91 mm Hg; Intraocular pressure, mean ± stand deviation ([1]; 180 min.): 32.4±6.05 mm Hg; Intraocular pressure, mean ± stand deviation ([1]; 240 min.): 33.8±7.91 mm Hg; Intraocular pressure, mean ± stand deviation ([1]; 300 min.): 32.3±7.67 mm Hg |
